# Data: patent publication US20120196828A1, “SENSITIZATION OF CANCER CELLS TO TREATMENT” (priority 2011, published 2012)
# Values joined by “and” are separate entries in the source; they are usually repeats but may differ in a detail not shown here. Equal entries are not always repeated.
# Columns and labels:
# [1] = Body weight, deaths and clinical observations in the BxPC-3 xenograft study
# Procedure: (§1) All experiments were conducted on female athymic nude mice (Hsd:Athymic Nude-Foxn1nu) supplied by Harlan (Indianapolis, Ind.). Mice were received at four weeks of age, 12-15 grams in weight, and were acclimated for seven days prior to handling. The mice were housed in microisolator cages (Lab Products, Seaford, Del.) and maintained under specific pathogen-free conditions. All procedures were carried out under appropriate institutional guidelines for animal care.
# (§2) Seven days following inoculation, tumors were measured using calipers and tumor weight was calculated using the animal study management software, Study Director V.1.7.54 k (Study Log). See Britten C D, et al. Enhanced antitumor activity of 6-hydroxymethylacylfulvene in combination with irinotecan and 5-fluorouracil in the HT29 human colon tumor xenograft model. Cancer Res 59:1049-1053, 1999. […] Body weights were recorded when the mice were randomized and were taken twice weekly thereafter in conjunction with tumor measurements, on each of Days 1, 4, 8, 11, 15, 18, 22, 26, 30, 33, and 36.
# (§3) The study was terminated when the vehicle control reached an endpoint of 1500 mg, on Day 36.
# [2] = system: BxPC-3 Human Pancreas Tumor Xenograft; experiment: BxPC-3 human pancreas tumor xenograft model: tumor weight and tumor growth inhibition; assay type: in vivo, mouse
# Procedure: Compounds tested in the experiment were as follows. […] A concentration of 4.8 mg/ml was formulated to deliver a 24 mg/kg dose at a 5 ml/kg dose volume when administered subcutaneously. […] Nab-paclitaxel was manufactured by Abraxis BioScience LLC (Bridgewater, N.J.) and diluted in a 0.9% NaCl solution to a concentration of 1.5 mg/ml to deliver 15 mg/kg, in a 10 ml/kg dose volume. All standard agent preparations were made fresh prior to their administration.
# BxPC-3 cells were obtained and prepared as follows. The BxPC-3 pancreas tumor cell line was received from American Type Culture Collection (ATCC, Manassas, Va.). Cultures were maintained in RPMI 1640 medium (Hyclone, Logan, Utah) supplemented with 5% fetal bovine serum. The cells were housed in a 5% CO2 atmosphere. The cultures were expanded in tissue culture flasks at a 1:3 split ratio until a sufficient amount of cells were harvested.
# as §1
# BxPC-3 Human Pancreas Tumor Xenograft Model: Female athymic nude mice per treatment condition were inoculated subcutaneously in the right flank with 0.1 ml of a 50% RPMI 1640/50% Matrigel™ (BD Biosciences, Bedford, Mass.) mixture containing a suspension of BxPC-3 tumor cells (approximately 5×10^6 cells/mouse).
# as §2, §3
# Mean tumor growth inhibition (TGI) was calculated utilizing Formula A below (deaths were not included in the TGI calculations).
# All statistical analyses in the xenograft study were performed with GraphPad Prism® v4 software.
# [3] = target: anti-thrombin III (Homo sapiens, UniProt P01008); details: cited from earlier work
# Chain of anti-thrombin III (P01008 33-464, species assumed): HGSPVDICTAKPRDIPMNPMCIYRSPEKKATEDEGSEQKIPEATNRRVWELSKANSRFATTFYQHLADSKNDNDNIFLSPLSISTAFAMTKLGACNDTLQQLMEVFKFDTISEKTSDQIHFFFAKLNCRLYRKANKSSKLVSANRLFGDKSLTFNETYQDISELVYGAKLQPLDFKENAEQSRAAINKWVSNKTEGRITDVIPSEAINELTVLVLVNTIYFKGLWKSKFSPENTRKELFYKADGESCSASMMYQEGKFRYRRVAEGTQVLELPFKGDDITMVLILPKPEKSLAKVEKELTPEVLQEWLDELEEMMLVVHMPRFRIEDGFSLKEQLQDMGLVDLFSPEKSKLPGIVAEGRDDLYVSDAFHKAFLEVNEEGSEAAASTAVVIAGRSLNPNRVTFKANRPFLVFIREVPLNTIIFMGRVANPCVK
# [4] = target: Receptor for Advanced Glycation End products (RAGE) / HMGB1 (Homo sapiens, UniProt Q15109); details: Rao et al. 2010; WO 2009/015183; cited from earlier work
# Chain of Receptor for Advanced Glycation End products (RAGE) / HMGB1 (Q15109 23-344 limits assumed, species assumed): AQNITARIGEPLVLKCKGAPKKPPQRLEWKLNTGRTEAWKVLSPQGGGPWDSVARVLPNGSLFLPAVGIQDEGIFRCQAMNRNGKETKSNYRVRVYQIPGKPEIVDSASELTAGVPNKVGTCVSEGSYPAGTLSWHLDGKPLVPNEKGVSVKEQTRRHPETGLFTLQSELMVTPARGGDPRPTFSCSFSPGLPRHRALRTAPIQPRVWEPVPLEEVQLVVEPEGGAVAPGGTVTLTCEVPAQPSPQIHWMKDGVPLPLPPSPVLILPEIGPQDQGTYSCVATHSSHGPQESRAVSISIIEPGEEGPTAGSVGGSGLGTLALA
# [5] = system: metastatic pancreatic cancer; details: patients with metastatic pancreatic cancer; ODSH 4 mg/kg bolus then 0.375 mg/kg/hr infusion
# Procedure: Subjects included in the trial are: patients diagnosed with metastatic pancreatic cancer. […] See also, Burris, H. A., et al., 1997, J. Clin. Oncol. 15(6):2403-13. […] J. Clin. Oncol. 30(1):15-20. Subjects in each arm of the trial are evaluated for time to tumor progression, weight loss, pain control, six-month survival rates, and overall survival.
# Subjects included in the trial are: patients diagnosed with metastatic pancreatic cancer.
# Next, 50 subjects are then randomly assigned to one of two arms: either a control or a treatment group.
# [6] = system: metastatic gastric cancer; details: patients with metastatic gastric cancer; ODSH with mDCF
# Procedure: Subjects included in the trial are: patients diagnosed with metastatic gastric, including cancer at the gastroesophageal junction. […] Subjects in each arm of the trial are evaluated for time to tumor progression, weight loss, pain control, six-month survival rates, and overall survival.
# [7] = ANOVA with Tukey's Multiple Comparison Test
substance,measurement,setting,value
"2-O, 3-O desulfated heparin [ODSH]",Day 1 Average Weight,[1]; Day 1,21.54 g
same,Day 4 Average Weight,[1]; Day 4,21.18 g
same,Day 4 % Weight Loss or Gain,"[1]; Day 4, vs starting weight",−1.67%
same,Day 8 Average Weight,[1]; Day 8,21.18 g
same,Day 8 % Weight Loss or Gain,"[1]; Day 8, vs starting weight",−1.67%
same,Day 11 Average Weight,[1]; Day 11,20.95 g
same,Day 11 % Weight Loss or Gain,"[1]; Day 11, vs starting weight",−2.74%
same,Day 15 Average Weight,[1]; Day 15,21.08 g
same,Day 15 % Weight Loss or Gain,"[1]; Day 15, vs starting weight",−2.14%
same,Day 18 Average Weight,[1]; Day 18,21.04 g
same,Day 18 % Weight Loss or Gain,"[1]; Day 18, vs starting weight",−2.32%
same,Day 22 Average Weight,[1]; Day 22,22.53 g
same,Day 22 Average Weight,[1]; Day 22 (Table 12),21.56 g
same,Day 22 % Weight Loss or Gain,"[1]; Day 22 (Table 12), vs starting weight",0.09%
same,Day 22 % Weight Loss or Gain,"[1]; Day 22, vs starting weight",4.60%
same,Day 26 Average Weight,[1]; Day 26 (Table 12),22.14 g
same,Day 26 % Weight Loss or Gain,"[1]; Day 26 (Table 12), vs starting weight",2.79%
same,Day 30 % Weight Loss or Gain,"[1]; Day 30, vs starting weight, groups 3 and 5 switched regimen from Day 26",4.92%
same,Day 30 Average Weight,"[1]; Day 30, groups 3 and 5 switched to gemcitabine + nab-paclitaxel regimen from Day 26",22.60 g
same,Day 26 Average Weight,[1]; Table 13 Day 26,22.46 g
same,Day 26 % Weight Loss or Gain,"[1]; Table 13 Day 26, vs starting weight",4.27%
same,Tolerability / toxicity of the regimen,"[1]; athymic nude mice, dosing per Table 1",well-tolerated
same,Starting Weight,"[1]; baseline body weight, female athymic nude mice, BxPC-3 xenograft study",21.54 g
same,Maximum weight loss,[1]; body weight of mice,2.7%
same,Day bruising of the abdomens was first observed,"[1]; mouse, in vivo",15 days
same,Day bruising of the tails was first observed,"[1]; mouse, in vivo",8 days
same,Day by which the mice recovered their weight,"[1]; mouse, in vivo",≤ 22 days
same,Day on which maximum weight loss was reached,"[1]; mouse, in vivo",11 days
same,Day swelling of the tail was first observed,"[1]; mouse, in vivo",11 days
same,Mice demonstrating bruising on the tails or abdomen (site of injection),[1]; of ten mice,All ten
same,Mice demonstrating swelling of the tail,[1]; of ten mice,One of the ten
same,Deaths,"[1]; total deaths on or before Day 26, N = 10 per group",0
same,Deaths,"[1]; total deaths on or before Day 36, n = 10 per group",0
same,Difference in tumor weight on Day 26 compared to vehicle control,[2]; [7],No significant difference
same,Difference in tumor weight on Day 36 compared to vehicle control,[2]; [7],No significant difference
same,"Mean tumor weight, Day 1","[2]; Day 1 (randomization), group mean, dosing per Table 1",122.4 mg
same,"Median tumor weight, Day 1","[2]; Day 1 (randomization), group median, dosing per Table 1",22.9 mg
same,"Tumor weight, individual mouse, Day 1","[2]; Day 1 (randomization), individual mouse, dosing per Table 1 (ODSH 24, oxaliplatin 10, gemcitabine 80, nab-paclitaxel 15 mg/kg)",140 mg and 116 mg and 172 mg and 94 mg and 131 mg and 106 mg and 125 mg and 143 mg and 129 mg
same,"Mean tumor weight, Day 4","[2]; Day 4, group mean, dosing per Table 1",134.0 mg
same,"Median tumor weight, Day 4","[2]; Day 4, group median, dosing per Table 1",28.6 mg
same,"Tumor weight, individual mouse, Day 4","[2]; Day 4, individual mouse, dosing per Table 1",162 mg and 98 mg and 110 mg and 141 mg and 97 mg and 181 mg and 135 mg and 130 mg and 144 mg and 133 mg
same,"Mean tumor weight, Day 8","[2]; Day 8, group mean, dosing per Table 1",146.0 mg
same,"Median tumor weight, Day 8","[2]; Day 8, group median, dosing per Table 1",40.4 mg
same,"Tumor weight, individual mouse, Day 8","[2]; Day 8, individual mouse, dosing per Table 1",218 mg and 118 mg and 144 mg and 183 mg and 125 mg and 222 mg and 126 mg and 155 mg and 157 mg and 148 mg
same,"Mean tumor weight, Day 11","[2]; Day 11, group mean, dosing per Table 1",187.6 mg
same,"Median tumor weight, Day 11","[2]; Day 11, group median, dosing per Table 1",162.1 mg
same,"Tumor weight, individual mouse, Day 11","[2]; Day 11, individual mouse, dosing per Table 1",149 mg and 288 mg and 142 mg and 175 mg and 243 mg and 146 mg and 252 mg and 137 mg and 140 mg and 203 mg
same,"Mean tumor weight, Day 15","[2]; Day 15, group mean, dosing per Table 1",263.0 mg
same,"Median tumor weight, Day 15","[2]; Day 15, group median, dosing per Table 1",250.0 mg
same,"Tumor weight, individual mouse, Day 15","[2]; Day 15, individual mouse, dosing per Table 1",206 mg and 340 mg and 224 mg and 263 mg and 348 mg and 237 mg and 321 mg and 208 mg and 218 mg and 264 mg
same,"Mean tumor weight, Day 18","[2]; Day 18, group mean, dosing per Table 1",338.5 mg
same,"Median tumor weight, Day 18","[2]; Day 18, group median, dosing per Table 1",304.7 mg
same,"Tumor weight, individual mouse, Day 18","[2]; Day 18, individual mouse, dosing per Table 1",278 mg (2×) and 489 mg and 291 mg and 288 mg and 419 mg and 256 mg and 415 mg and 318 mg and 352 mg
same,"Mean tumor weight, Day 22","[2]; Day 22, group mean, dosing per Table 1",453.8 mg
same,"Median tumor weight, Day 22","[2]; Day 22, group median, dosing per Table 1",425.4 mg
same,"Tumor weight, individual mouse, Day 22","[2]; Day 22, individual mouse, dosing per Table 1",358 mg and 622 mg and 360 mg and 400 mg and 556 mg and 402 mg and 551 mg and 449 mg and 326 mg and 515 mg
same,"Mean tumor weight, Day 26","[2]; Day 26, group mean, dosing per Table 1",616.2 mg
same,"Median tumor weight, Day 26","[2]; Day 26, group median, dosing per Table 1",551.3 mg
same,"Tumor weight, individual mouse, Day 26","[2]; Day 26, individual mouse, dosing per Table 1",509 mg and 894 mg and 478 mg and 529 mg and 770 mg and 573 mg and 724 mg and 524 mg and 394 mg and 766 mg
same,Day 26 Tumor Weight,"[2]; Day 26, mean ± Std Err, treatment administered until Day 26",616.2 ± 50.9 mg
same,Day 26 % TGI,"[2]; Day 26 vs Day 1, relative to vehicle control (Group 1), deaths not included",11.5% and 11.5 (10/10) %
same,"Mean tumor weight, Day 30","[2]; Day 30, group mean of surviving mice, dosing per Table 1",882.3 mg
same,"Median tumor weight, Day 30","[2]; Day 30, group median, dosing per Table 1",856.4 mg
same,"Tumor weight, individual mouse, Day 30","[2]; Day 30, individual mouse, dosing per Table 1","697 mg and 1,083 mg and 756 mg and 893 mg and 1,201 mg and 820 mg and 945 mg and 764 mg and 555 mg and 1,109 mg"
same,"Mean tumor weight, Day 33","[2]; Day 33, group mean of surviving mice, dosing per Table 1","1,038.6 mg"
same,"Median tumor weight, Day 33","[2]; Day 33, group median, dosing per Table 1",979.8 mg
same,"Tumor weight, individual mouse, Day 33","[2]; Day 33, individual mouse, dosing per Table 1","908 mg and 1,218 mg and 999 mg and 961 mg (2×) and 1,309 mg and 1,087 mg and 871 mg and 733 mg and 1,340 mg"
same,Day 36 Tumor Weight,"[2]; Day 36, treatment administered until Day 35",1270.1 ± 95.5 mg
same,"Median tumor weight, Day 36","[2]; Day 36, group median, dosing per Table 1","1,151.5 mg"
same,"Tumor weight, individual mouse, Day 36","[2]; Day 36, individual mouse, dosing per Table 1","1,072 mg and 1,450 mg and 1,153 mg and 1,150 mg (2×) and 1,654 mg and 1,376 mg and 1,037 mg and 836 mg and 1,823 mg"
same,Day 36 % TGI,"[2]; Day 36 vs Day 1, relative to vehicle control (Group 1), deaths not included",18.2%
same,Overall antitumor effect (summary statement),[2]; xenograft model of human pancreatic cancer,inhibits tumor growth to a similar extent as treatment with gemcitabine
same,Kd,[3],~339 µM
same,Kd for anti-thrombin III,[3],~4000 µg/mL
same,Binding of RAGE by HMGB1 and other RAGE ligands,[4],inhibit binding
same,Therapeutic benefit of addition of ODSH to chemotherapy in pancreatic cancer,[5],therapeutic benefit
same,Therapeutic benefit of addition of ODSH to chemotherapy in gastric cancer,[6],therapeutic benefit
